# Tests used:
# HCT116 tumor xenografts = assay: HCT116 xenograft model
# Experimental: Twenty-three conventional, immunodeficient female mice (BALB/c nude, 20–23 g) were housed in RAMS and used as donors and recipients for HCT116 cells.
# The first implantation of HCT116 tumor cells (1 × 10^6 in a volume of 0.5 mL) was performed subcutaneously into two BALB/c nude mice. The first transplantation of the xenograft (50 mg) was performed after 30 days into 2 mice (the 3rd passage was used in vivo). […] Then, in a laminar flow hood, the tumor suspension (0.5 mL, the first passage) was implanted subcutaneously into the flank area of two BALB/c nude mice (males). After a volume of 0.8–1.0 cm^3 was achieved, the nudes were passaged using 4 donor mice to obtain the desired grade and mass of the transplants. […] The tumor nests were mechanistically disintegrated to obtain 10% of the tumor samples, and then the nutrient medium was added. The inoculation was performed using individual sterile plastic syringes (1 mL) equipped with 18G suture needles. The transplantation was carried out bilaterally in the flank areas. Each mouse was inoculated with 0.5 mL (10%) of the tumor suspension (40 mg of the tumor mass for each animal). Prior to inoculation, the animals’ skin was treated with 70% alcohol. Between injections, the Petri dish containing the tumor suspension was tightly covered to avoid any contamination. Before injection, the suspension was vigorously stirred in a syringe. […]
# LNCaP cells = assay: MTT cytotoxicity assay, LNCaP (p53 pos); assay type: cell-based; conditions: Homo sapiens, LNCaP, 48 h
# Acute toxicity = assay type: in vivo; conditions: for body weight (M ± m): i.p. 2500 mg/kg
# Experimental: Acute toxicity tests were performed on mature outbred mice (male and female). The design of the experiment is specified in Table S3 (Supplementary Materials).
# To select the doses, the pilot experiments were carried out on a minimum number of animals.
# The surviving animals were subjected to euthanasia and necropsy on the 29th day of the experiment to study the effects of the test agent on their internal organs.
# Outbred mice (males and females) were used in the experiments. Intraperitoneal injections were applied in the posterior third of the abdomen, slightly departing from the midline. The mice were injected with 1 mL of the solution. […] The solution was prepared ex tempore. Doses were calculated for each animal separately, according to body weight data.
# The group arithmetic mean (M) and standard error of the mean (m) were calculated. Statistical significance of the differences was assessed using Student’s t-test. The differences between these groups were considered significant at p < 0.05.
# HCT^wt cells = assay: MTT cytotoxicity assay, HCT^wt (p53 pos); assay type: cell-based; conditions: 48 h
# [1] = Solubility in aqueous media (observation); assay type: physicochemical; conditions: observed in acute toxicity pilot, doses > 2500 mg/kg not feasible
# Experimental: To select the doses, the pilot experiments were carried out on a minimum number of animals. […] When administered in large doses during autopsy in the abdominal cavities of the mice, on the inner wall and membranes of the abdominal organs, remnants of the non-absorbed drug were found in the form of white layers, indicating incomplete absorption and insufficient solubility of the agent. […] According to the data obtained from the trial experiment, in the main study—with intraperitoneal administration—a dose of 2500 mg/kg was used.
# HCT^−/− cells = assay: MTT cytotoxicity assay, HCT^−/− (p53 neg); assay type: cell-based; conditions: 48 h
# [2] = test system: p53, PUMA, CASPASE-3 in HCTwt cells; assay: Western blot, p53 and p53-dependent apoptosis proteins; assay type: cell-based
# Experimental: To verify the mechanism of cytotoxic action of the synthesized dispiro-indolinones, Western blot testing of dispiro-indolinone 29 was performed using the p53-expressing HCTwt and LNCaP cell lines. Both the p53 protein and the proteins involved in the p53-dependent process of apoptosis (i.e., BAX, NOXA, and PUMA) were determined. For comparison, similar testing was carried out for a cell line not expressing p53 (HCT^(−/−)).
smiles,measurement,setting,value
CCOc1ccc(N2C(=O)C3(NC2=S)C(c2ccc(Cl)cc2)CN(C)C32C(=O)Nc3ccc(Br)cc32)cc1 (stereo not drawn) [Compound 29],T/C,"HCT116 tumor xenografts; 1000 mg/kg i.p. o.d. 10 days, after 4 days, p = 0.0007",44%
same,T/C (treatment/control),"HCT116 tumor xenografts; sample 1000 mg/kg i.p. o.d. 10 days, after 24 h, p = 0.00005",25%
same,IC50,LNCaP cells,3.5 ± 1.9 µM
same,autopsy finding,"Acute toxicity; 29th day after exposure, intraperitoneal 2500 mg/kg","increase in the liver, with signs of dystrophy"
same,dynamics of body weight,"Acute toxicity; intraperitoneal 2500 mg/kg, vs control mice",did not show differences from the control mice
same,clinical picture of intoxication,"Acute toxicity; intraperitoneal, 2500 mg/kg","depressed state, a decrease in motor activity, and the release of porphyrin"
same,time after which symptoms of intoxication disappeared,"Acute toxicity; intraperitoneal, 2500 mg/kg",30 to 60 min
same,deaths,"Acute toxicity; intraperitoneal, 2500 mg/kg, observation 28 days",no deaths were registered
same,body weight (M ± m),"Acute toxicity; ♀, day 0","23,8±0,54 grams"
same,body weight (M ± m),"Acute toxicity; ♀, day 7","24,0±1,25 grams"
same,body weight (M ± m),"Acute toxicity; ♀, day 14","24,5±0,91 grams"
same,body weight (M ± m),"Acute toxicity; ♀, day 21","24,0±1,13 grams"
same,body weight (M ± m),"Acute toxicity; ♀, day 29","25,0±1,18 grams"
same,body weight (M ± m),"Acute toxicity; ♂, day 0","24,6±0,53 grams"
same,body weight (M ± m),"Acute toxicity; ♂, day 7","25,2±0,49 grams"
same,body weight (M ± m),"Acute toxicity; ♂, day 14","26,9±0,58 grams"
same,body weight (M ± m),"Acute toxicity; ♂, day 21","26,0±0,63 grams"
same,body weight (M ± m),"Acute toxicity; ♂, day 29","24,1±0,32 grams"
same,IC50,HCT^wt cells,14.1 ± 4.2 µM
same,solubility in aqueous media,[1],low solubility
same,IC50,HCT^−/− cells,70.5 ± 15.2 µM
same,concentration / expression of the p53 protein,"[2]; HCTwt cell culture, increasing concentration, nutlin-3a 20 µM positive control",slight increase
same,expression of CASPASE-3,[2]; Western blot,increase
same,expression of PUMA,[2]; Western blot,increase

# Reference: publication PMC9919490, “Synthesis and Biological Evaluation of Novel Dispiro-Indolinones with Anticancer Activity” (Molecules, 2023)
